From patent publication US11478478B2, “2,3-disubstituted 1-acyl-4-amino-1,2,3,4-tetrahydroquinoline derivatives and their use as bromodomain inhibitors” (GLAXOSMITHKLINE INTELLECTUAL PROPERTY (NO.2) LIMITED, priority 2013, dated 2022)

Biological target: T1, BRD4 BD2 (Homo sapiens, UniProt O60885, Y97A)
T1 construct: BRD4 (1-477) (Y97A) and (Y390A); made in house; host or cells: E. coli (pET15b vector)
Assay: TR-FRET binding assay, BRD4 BD2 (BD1-mutated protein)
Settings: read-out: pIC50 in the BRD4 BD2 assay (converted)
Summary of the method: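 Displacement of Alexa Fluor647-labelled bromodomain ligand (at Kd) from 10 nM His-tagged BRD4 (1-477, Y97A) read by Eu-anti-His TR-FRET (665/615 ratio) in pH 7.4 HEPES buffer, 0.5% DMSO. Compound preincubated 30 min at rt, detection ≥30 min. pIC50 derived from four-parameter fit after normalisation to controls.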

Row | IC50 [nM] | Structure (SMILES)
1 | 100 | CC(=O)N1c2ccc(F)cc2[C@H](Nc2ncccc2C#N)[C@@H](C)[C@@H]1C [Example 504, 2-(((2S,3R,4R)-1-acetyl-6-fluoro-2,3-dimethyl-1,2,3,4-tetrahydroquinolin-4-yl)amino)nicotinonitrile]
2 | 100 | CC(=O)N1c2ccc(-c3nnc(C)s3)cc2[C@H](Nc2ncccn2)[C@@H](C)[C@@H]1C1CC1 [Example 590, 1-((2S,3R,4R)-2-cyclopropyl-3-methyl-6-(5-methyl-1,3,4-thiadiazol-2-yl)-4-(pyrimidin-2-ylamino)-3,4-dihydroquinolin-1(2H)-yl)ethanone]
3 | 100 | COCCNC(=O)c1ccc2c(c1)[C@H](Nc1ncccn1)[C@@H](C)[C@H](C1CC1)N2C(C)=O [Example 489, (2S,3R,4R)-1-acetyl-2-cyclopropyl-N-(2-methoxyethyl)-3-methyl-4-(pyrimidin-2-ylamino)-1,2,3,4-tetrahydroquinoline-6-carboxamide]
4 | 100 | CC(=O)N1c2ccc(-c3cn[nH]c3)cc2[C@H](Nc2ncccn2)[C@@H](C)[C@@H]1C1CC1 [Example 581, 1-((2S,3R,4R)-2-cyclopropyyl-3-methyl-6-(1H-pyrazol-4-yl)-4-(pyrimidin-2-ylamino)-3,4-dihydroquinolin-1(2H)-yl)ethanone]
5 | 100 | COCCCNC(=O)c1ccc2c(c1)[C@H](Nc1cccc(C)n1)[C@@H](C)[C@H](C1CC1)N2C(C)=O [Example 480, (2S,3R,4R)-1-acetyl-2-cyclopropyl-N-(3-methoxypropyl)-3-methyl-4-((6-methylpyridin-2-yl)amino)-1,2,3,4-tetrahydroquinoline-6-carboxamide]
6 | 1000 to 100000 | CC(=O)N1c2ccc(F)cc2[C@H](Nc2cccnc2C#N)[C@@H](C)[C@@H]1C1CC1 [Example 503, 3-(((2S,3R,4R)-1-acetyl-2-cyclopropyl-6-fluoro-3-methyl-1,2,3,4-tetrahydroquinolin-4-yl)amino)picolinonitrile]
7 | 100 | CC(=O)N1c2ccc(C3=CCOCC3)cc2[C@H](Nc2ncccn2)[C@@H](C)[C@@H]1C1CC1 [Example 555, 1-((2S,3R,4R)-2-cyclopropyl-6-(3,6-dihydro-2H-pyran-4-yl)-3-methyl-4-(pyrimidin-2-ylamino)-3,4-dihydroquinolin-1(2H)-yl)ethanone]
8 | 100 | CC(=O)N1c2ccc(-c3ncc[nH]3)cc2[C@H](Nc2ncccn2)[C@@H](C)[C@@H]1C1CC1 [Example 588, 1-((2S,3R,4R)-2-cyclopropyl-6-(1H-imidazol-2-yl)-3-methyl-4-(pyrimidin-2-ylamino)-3,4-dihydroquinolin-1(2H)-yl)ethanone]
9 | 1000 to 100000 | CC(=O)N1c2ccc(F)cc2[C@H](Nc2ccnc(O)n2)[C@@H](C)[C@@H]1C [Example 517, 1-((2S,3R,4R)-6-fluoro-4-((2-hydroxypyrimidin-4-yl)amino)-2,3-dimethyl-3,4-dihydroquinolin-1(2H)-yl)ethanone]
10 | 1000 to 100000 | CC(=O)N1c2ccc(F)cc2[C@H](Nc2ccc(O)nc2)[C@@H](C)[C@@H]1C1CC1 [Example 533, 1-((2S,3R,4R)-2-cyclopropyl-6-fluoro-4-((6-hydroxypyridin-3-yl)amino)-3-methyl-3,4-dihydroquinolin-1(2H)-yl)ethanone]
11 | 1000 to 100000 | CC(=O)N1c2ccc(F)cc2[C@H](Nc2cc(O)ccn2)[C@@H](C)[C@@H]1C1CC1 [Example 532, 1-((2S,3R,4R)-2-cyclopropyl-6-fluoro-4-((4-hydroxypyridin-2-yl)amino)-3-methyl-3,4-dihydroquinolin-1(2H)-yl)ethanone]
12 | 100 | CC(=O)N1c2ccc(F)cc2[C@H](Nc2ncccc2C(N)=O)[C@@H](C)[C@@H]1C [Example 527, 2-(((2S,3R,4R)-1-acetyl-6-fluoro-2,3-dimethyl-1,2,3,4-tetrahydroquinolin-4-yl)amino)nicotinamide]

Further lines, the molecule ahead of its results:

Row | Structure (SMILES) | IC50 [nM]
13 | CC(=O)N1c2ccc(C(N)=O)cc2[C@H](Nc2ncc(Cl)cn2)[C@@H](C)[C@@H]1C1CC1 [Example 403, (2S,3R,4R)-1-acetyl-4-((5-chloropyrimidin-2-yl)amino)-2-cyclopropyl-3-methyl-1,2,3,4-tetrahydroquinoline-6-carboxamide] | 100
14 | CC(=O)N1c2ccc(C3=CCNCC3)cc2[C@@H](Nc2cccc(C)n2)[C@H](C)[C@H]1C1CC1 (single isomer, unassigned) [Example 189b] | 1000 to 100000
15 | CC(=O)N1c2ccccc2[C@H](Nc2ccnc(C)c2)[C@@H](C)[C@@H]1C (racemic) [Example 23, rac-1-((2S,3R,4R)-2,3-dimethyl-4-((2-methylpyridin-4-yl)amino)-3,4-dihydroquinolin-1(2H)-yl)ethanone] | 1000 to 100000
16 | COCCn1cc(-c2ccc3c(c2)[C@@H](Nc2cnc(C)cn2)[C@H](C)[C@@H](C2CC2)N3C(C)=O)cn1 (single isomer, unassigned) [Example 138b] | 1000 to 100000
17 | CC(=O)N1c2ccccc2[C@H](Nc2ccc(C(=O)O)cc2)[C@@H](C)[C@@H]1C1CC1 (racemic) [Example 127, rac-4-(((2S,3R,4R)-1-acetyl-2-cyclopropyl-3-methyl-1,2,3,4-tetrahydroquinolin-4-yl)amino)benzoic acid] | 1000 to 100000
18 | CC(=O)N1c2ccc(C(=O)O)cc2[C@H](Nc2ccc(S(C)(=O)=O)cc2)[C@@H](C)[C@@H]1C1CC1 [Example 332, (2S,3R,4)-1-acetyl-2-cyclopropyl-3-methyl-4-((4-(methylsulfonyl)phenyl)amino)-1,2,3,4-tetrahydroquinoline-6-carboxylic acid] | 1000 to 100000
19 | CC(=O)N1c2ccccc2[C@H](Nc2ccsc2)[C@@H](C)[C@@H]1C (racemic) [Example 12, rac-1-((2S,3R,4R)-2,3-dimethyl-4-(thiophen-3-ylamino)-3,4-dihydroquinolin-1(2H)-yl)ethanone] | 100
20 | CC(=O)N1c2ccc(C(N)=O)cc2[C@H](Nc2nccc(N(C)C)n2)[C@@H](C)[C@@H]1C1CC1 [Example 387, (2S,3R,4R)-1-acetyl-2-cyclopropyl-4-((4-(dimethylamino)pyrimidin-2-yl)amino)-3-methyl-1,2,3,4-tetrahydroquinoline-6-carboxamide] | 1000 to 100000
21 | CC(=O)N1c2ccc(N3CCC(C)C3)cc2[C@H](Nc2ccccc2)[C@@H](C)[C@@H]1C (mixture of isomers) [Example 80, 1-((rac-2S,3R,4R)-2,3-dimethyl-6-(3-methylpyrrolidin-1-yl)-4-(phenylamino)-3,4-dihydroquinolin-1(2H)-yl)ethanone] | 100
22 | CCc1ccnc(N[C@H]2c3cc(C(N)=O)ccc3N(C(C)=O)[C@@H](C3CC3)[C@@H]2C)n1 [Example 407, (2S,3R,4R)-1-acetyl-2-cyclopropyl-4-((4-ethylpyrimidin-2-yl)amino)-3-methyl-1,2,3,4-tetrahydroquinoline-6-carboxamide] | 100
23 | CC(=O)N1c2ccc(N3CCOCC3)cc2[C@@H](Nc2ccccc2)[C@H](C)[C@H]1C1CC1 (single isomer, unassigned) [Example 91b] | 1000 to 100000
24 | CNC(=O)c1ccc2c(c1)[C@H](Nc1cccc(C)n1)[C@@H](C)[C@H](C)N2C(C)=O (racemic) [Example 231, rac-(2S,3R,4R)-1-acetyl-N,2,3-trimethyl-4-((6-methylpyridin-2-yl)amino)-1,2,3,4-tetrahydroquinoline-6-carboxamide] | 100
25 | CC[C@H]1[C@H](C)[C@@H](Nc2ccc(C#N)cc2)c2cc(F)ccc2N1C(C)=O (single isomer, unassigned) [Example 147a] | 1000 to 100000
26 | CC(=O)N1c2ccc(C3=CCNCC3)cc2[C@H](Nc2cccc(C)n2)[C@@H](C)[C@@H]1C1CC1 (single isomer, unassigned) [Example 189a] | 100
27 | CC(=O)N1c2ccc(C(N)=O)cc2[C@H](Nc2ncccc2C(N)=O)[C@@H](C)[C@@H]1C1CC1 [Example 418, (2S,3R,4R)-1-acetyl-4-((3-carbamoylpyridin-2-yl)amino)-2-cyclopropyl-3-methyl-1,2,3,4-tetrahydroquinoline-6-carboxamide] | 100
28 | CC(=O)N1c2ccccc2[C@H](Nc2ccc(C#N)cc2)[C@@H](C)[C@@H]1C1CC1 (racemic) [Example 30, rac-4-(((2S,3R,4R)-1-Acetyl-2-cyclopropyl-3-methyl-1,2,3,4-tetrahydroquinolin-4-yl)amino)benzonitrile] | 100
29 | CC(=O)N1c2ccc(C(N)=O)cc2[C@H](Nc2nccc(C)n2)[C@@H](C)[C@@H]1C1CC1 [Example 291, (2S,3R,4R)-1-acetyl-2-cyclopropyl-3-methyl-4-((4-methylpyrimidin-2-yl)amino)-1,2,3,4-tetrahydroquinoline-6-carboxamide] | 100
30 | CC(=O)N1c2ccc(C(N)=O)cc2[C@H](Nc2nccc(C(C)C)n2)[C@@H](C)[C@@H]1C1CC1 [Example 411, (2S,3R,4R)-1-acetyl-2-cyclopropyl-4-((4-isopropylpyrimidin-2-yl)amino)-3-methyl-1,2,3,4-tetrahydroquinoline-6-carboxamide] | 100
31 | CC(=O)N1c2ccccc2[C@H](Nc2ccc(Cl)cc2)[C@@H](C)[C@@H]1C (racemic) [Example 13, rac-1-((2S,3R,4R)-4-((4-chlorophenyl)amino)-2,3-dimethyl-3,4-dihydroquinolin-1(2H)-yl)ethanone] | 100
32 | CC(=O)N1c2ccc(C(N)=O)cc2[C@H](Nc2cccc(CO)n2)[C@@H](C)[C@@H]1C1CC1 [Example 350, (2S,3R,4R)-1-acetyl-2-cyclopropyl-4-((6-(hydroxymethyl)pyridin-2-yl)amino)-3-methyl-1,2,3,4-tetrahydroquinoline-6-carboxamide] | 100
33 | COCCNC(=O)c1ccc2c(c1)[C@H](Nc1cccc(C)n1)[C@@H](C)[C@H](C1CC1)N2C(C)=O [Example 256, (2S,3R,4R)-1-acetyl-2-cyclopropyl-N-(2-methoxyethyl)-3-methyl-4-((6-methylpyridin-2-yl)amino)-1,2,3,4-tetrahydroquinoline-6-carboxamide] | 100
